From US8198446B2, “Crystalline micropowder particles” (Toray Industries, Inc., priority 2007, dated 2012)

Legend:
[1] = Measurement of particle diameter distribution (laser diffraction, dry measurement, Mastersizer 2000); type: physicochemical; conditions: for Particle Diameter Distribution D50 / Particle Diameter Distribution D90: dry measurement, volume basis
Protocol: In the present invention, D50 and D90 are indices for defining particle diameter distribution. Particle diameter distribution is usually called particle size distribution. Particles are divided into groups along with their size with appropriate intervals, and weight (volume) or particle number of the particles belonging to each group is measured to obtain the particle number (frequency) of each group. Taking the particle number (frequency) along the ordinate and taking the particle diameter along the abscissa, a particle diameter distribution is shown as a histogram, frequency curve, cumulative curve or the like. In the present invention, frequency was calculated based on volume. In the particle diameter distribution obtained in such a manner, D50 means the particle diameter at the point where the volume which is cumulatively measured from smaller particles reaches 50%, that is, the point where the cumulative frequency of the volume distribution reaches 50%. D90 means the particle diameter at the point where the volume which is cumulatively measured from smaller particles reaches 90%, that is, the point where the cumulative frequency of the volume distribution reaches 90%. Cumulative frequency (%) of particles which have a smaller diameter than a specified particle diameter can also be calculated from such a distribution chart.
Measurement of the particle diameter distribution of the crystalline finely-ground particles according to the present invention may be carried out with a commercially available apparatus using laser diffraction/scattering based on Mie Theory. For example, the measurement is carried out using a commercially available apparatus such as Malvern (registered trademark) Mastersizer Laser Diffraction Analyzer (Malvern Instruments Ltd). This analyzer irradiates He—Ne laser beam and blue light-emitting diode on particles to obtain a light scattering pattern which occurs on a detector by the irradiation, and then analyzes the light scattering pattern according to Mie Theory to determine the particle diameter distribution. […] An example of the measurement condition is as follows, which was used in Evaluation 1 of the present invention.
• Apparatus: Laser diffraction-based particle size distribution analyzer Mastersizer 2000 (Malvern) • Dry measurement unit: Scircco 2000 • Refractive Index of Samples: Real part; 1.810, Imaginary part; 0 • Time for Sample Measurement: 1 second • Time for Background Measurement: 5 seconds • Pressure: 2.0 bar • Feed Rate: 40% • Analysis Model: Single narrow mode • Calculation Sensitivity Enhanced • Particle Shape Irregular • Analysis Range: 0.020 to 2000 μm • Basis of Size Distribution Measurement: Volume
The particle diameter distribution of the subject compound was measured by dry measurement using a particle size distribution analyzer (Mastersizer 2000, manufactured by Malvern). D50 and D90 were calculated as an index of the particle diameter distribution.

[2] = Check of crystalline state and measurement of degree of crystallinity by powder X-ray diffraction; type: physicochemical; conditions: powder X-ray diffraction, Xc=(Sc/(Sc+Sa))×100
Protocol: The degree of crystallinity of the crystalline finely-ground particles according to the present invention is calculated from the integrated intensity ratio of crystalline peaks and amorphous halo which are extracted from an X-ray diffraction pattern obtained by powder X-ray diffraction measurement.
The powder X-ray diffraction measurement may be carried out by using, for example, a powder X-ray diffractometer (2200/RINT Ultima+PC) manufactured by Rigaku as described in Evaluation 2 of the present invention. In preparation of a measurement sample, 100 mg of a sample material is filled in a glass sample plate (0.2 mm depth) in non-destructive condition, and the surface of the sample material is leveled out using a glass plate to obtain a measurement sample. An example of the measurement condition is as follows, which was used in the present invention.
The degree of crystallinity may be calculated by a known analysis method using diffraction patterns of a sample material and sample plate alone (without a sample material) and a difference pattern thereof. For example, using a powder X-ray diffraction pattern analysis software JADE5.0 produced by MDI, which is a commercially available analysis software, a degree of crystallinity may be calculated as follows.
• (1) A difference pattern of the diffraction patterns of a sample material and sample plate alone is smoothed (Savitzky-Goray filter: 19 points). • (2) For a display area of the difference pattern, the x-axis: diffraction angle (2θ) is set between 2 deg and 90 deg, and the y-axis: diffraction intensity (Counts) is set between 0 and 500. • (3) Points are set at diffraction angles of […], 65 and 90 deg, respectively, and a straight line parallel to the x-axis is drawn such that the line is contact with the difference diffraction pattern at a range of 65 deg to 90 deg. The area below the line is determined as a background. • (4) The background is subtracted. • (5) An integrated intensity at a range of 4 deg to 60 deg is calculated (which corresponds to a sum of the integrated intensity of crystalline peaks and an amorphous halo: Sc+Sa) • (6) Points are set at diffraction angles of 2, 7, 18, 26, 30, 35, 59, 65 and 90 deg, respectively. At 2, 65 and 90 deg, the diffraction intensity is set as 0, and at 7, 18, 26, 30, 35 and 59 deg, an approximation by a cubic spline is made such that the approximation formula is in contact with the difference pattern obtained after the subtraction of the background, thereby estimating an amorphous halo. • (7) The amorphous halo is subtracted. • (8) The integrated intensity at a range of 4 deg to 60 deg is calculated (which corresponds to the integrated intensity of the crystalline peaks: Sc). • (9) A degree of crystallinity is calculated according to the following equation. Xc=(Sc/(Sc+Sa))×100 Equation • Xc: Degree of crystallinity (%) • Sc: Integrated intensity of the crystalline peaks • Sa: Integrated intensity of the amorphous halo
For check of the crystalline state and measurement of the degree of crystallinity, powder X-ray diffraction measurement was carried out using a powder X-ray diffraction analyzer (2200/RINT Ultima+PC) manufactured by Rigaku.

[3] = Plasma concentration of drugs when administered to dogs; type: in vivo; conditions: oral 10 mg/kg, 3 male beagle dogs
Protocol: The pharmaceutical active substances with a different particle diameter distribution (Example 2 and Comparative Example 2) were orally administered (10 mg/kg) to 3 male beagle dogs, and blood samples were collected at each time points to measure the drug concentration in plasma.

[4] = Storage stability (2): total amount of related substances by HPLC, 60° C./75% RH opened; type: physicochemical
Protocol: For comparison of storage stability, the ground pharmaceutical active substance of Comparative Example 4 (grinding for 3 min), Comparative Example 5 (grinding for 6 min) and Comparative Example 6 (grinding for 7 min), all of which were ground with Table Ball Mill (model V-2M: manufactured by Irie Shokai), were left under the storage condition of 60° C./75% RH opened, and the total amount of related substances was analyzed by HPLC 0.5 and 2 months after the start of the storage (Table 7).

[5] = 60° C./75% RH opened, 0.5-Month Later
[6] = 60° C./75% RH opened, 2-Month Later

| Compound | Cumulative Frequency of Volume Distribution Which Is Occupied by Particles with Volume-Based Particle Diameter 15 (μm) or Less [1] [%] | Particle Diameter Distribution D50 [1] [μm] | Particle Diameter Distribution D90 [1] [μm] | Degree of Crystallinity [2] [%] | Drug Plasma Concentration AUC 0-24 h, Average (Standard Deviation) [3] | Drug Plasma Concentration C max, Average (Standard Deviation) [3] | Total Amount of Related Substances [4, 5] [%] | Total Amount of Related Substances ([4]; At Start of Storage) [%] | Total Amount of Related Substances [4, 6] [%] |
| --- | --- | --- | --- | --- | --- | --- | --- | --- | --- |
| O=C1c2ccccc2C(=O)N1[C@@H]1CC[C@@]2(O)[C@H]3Cc4ccc(O)c5c4[C@@]2(CCN3CC2CC2)[C@H]1O5 [Comparative Example 2, N-(17-Cyclopropylmethyl-4,5α-epoxy-3,14-dihydroxy-morphinan-6β-yl)-phthalimide] | 9.4 | 64.0 | 173 | 93 | 44.5 (25.4) ng · hr/mL | 4.8 (1.8) ng/mL | – | – | – |
| O=C1c2ccccc2C(=O)N1[C@@H]1CC[C@@]2(O)[C@H]3Cc4ccc(O)c5c4[C@@]2(CCN3CC2CC2)[C@H]1O5 [Comparative Example 4, N-(17-cyclopropylmethyl-4,5α-epoxy-3,14-dihydroxy-morphinan-6β-yl)-phthalimide] | – | 17.1 | 168 | 82 | – | – | 0.38 | 0.23 | – |
| O=C1c2ccccc2C(=O)N1[C@@H]1CC[C@@]2(O)[C@H]3Cc4ccc(O)c5c4[C@@]2(CCN3CC2CC2)[C@H]1O5 [Comparative Example 5, N-(17-cyclopropylmethyl-4,5α-epoxy-3,14-dihydroxy-morphinan-6β-yl)-phthalimide] | – | 19.2 | 246 | 71 | – | – | 0.61 | 0.24 | 1.07 |
| O=C1c2ccccc2C(=O)N1[C@@H]1CC[C@@]2(O)[C@H]3Cc4ccc(O)c5c4[C@@]2(CCN3CC2CC2)[C@H]1O5 [Comparative Example 6, N-(17-cyclopropylmethyl-4,5α-epoxy-3,14-dihydroxy-morphinan-6β-yl)-phthalimide] | – | 23.0 | 436 | 61 | – | – | 0.67 | 0.24 | 1.27 |
| O=C1c2ccccc2C(=O)N1[C@@H]1CC[C@@]2(O)[C@H]3Cc4ccc(O)c5c4[C@@]2(CCN3CC2CC2)[C@H]1O5 [Example 2, N-(17-cyclopropylmethyl-4,5α-epoxy-3,14-dihydroxy-morphinan-6β-yl)-phthalimide] | 96.3 | 6.23 | 12.4 | 89 | 180.3 (40.9) ng · hr/mL | 18.4 (7.2) ng/mL | – | – | – |
